From publication PMC10624635, “Design of allosteric sites into rotary motor V1-ATPase by restoring lost function of pseudo-active sites” (Nature Chemistry, 2023) come the findings set out here.

For this experiment, the target named is T1, wild-type V1-ATPase (Enterococcus hirae, UniProt Q08636+Q08637).
T1 construct: gene ntpA
The conditions noted are these: MgCl2; pH 6.5, 25 °C; ATP-regenerating system.

As to `Nc1ncnc2c1ncn2[C@@H]1O[C@H](COP(=O)(O)OP(=O)(O)OP(=O)(O)O)[C@@H](O)[C@H]1O` [ATP], the “coupled ATPase assay (NADH, pyruvate kinase / lactate dehydrogenase)” value is “We also measured ATPase activity of the wild-type and designed V1”.
